Measurements published in PubChem BioAssay (NCI).
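Values below derive from 48-hour exposures of cells grown in 96-well plates, with endpoints linearly interpolated between the two concentrations bracketing the appropriate inhibition level. The concentration for 50% growth inhibition is given as GI50. Definition used: TGI = concentration required for complete inhibition of growth.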

Assays:
Assay in all cases: NCI anticancer screen, dose series, 48 h; in the data active means GI50 below about 0.43 µM; inactive means the rest
MCF7 breast = system: MCF7 breast
SNB-19 CNS = system: SNB-19 CNS
M14 melanoma = system: M14 melanoma
OVCAR-8 ovarian = system: OVCAR-8 ovarian
SK-MEL-5 melanoma = system: SK-MEL-5 melanoma
MDA-MB-435 = system: MDA-MB-435
PC-3 prostate = system: PC-3 prostate
COLO 205 colon = system: COLO 205 colon
T-47D breast = system: T-47D breast
OVCAR-5 ovarian = system: OVCAR-5 ovarian
LOX IMVI melanoma = system: LOX IMVI melanoma
HS 578T breast = system: HS 578T breast

CN=C1Nc2ccccc2C(=S)N2CSC[C@@H]12
> 100 µM: TGI (MCF7 breast) | TGI (SNB-19 CNS) | TGI (M14 melanoma) | TGI (OVCAR-8 ovarian) | TGI (SK-MEL-5 melanoma) | TGI (MDA-MB-435) | TGI (PC-3 prostate) | TGI (COLO 205 colon) | TGI (T-47D breast) | TGI (OVCAR-5 ovarian)

NC(=S)Nc1nnc(-c2ccc(-c3nnc(NC(N)=S)o3)cc2)o1
> 100 µM: TGI (SNB-19 CNS) | TGI (M14 melanoma) | TGI (OVCAR-8 ovarian) | TGI (SK-MEL-5 melanoma) | TGI (LOX IMVI melanoma) | TGI (COLO 205 colon) | TGI (OVCAR-5 ovarian)

CC[N+](CC)(CC)Cc1cn(S(=O)(=O)c2ccccc2)c2ccccc12
> 100 µM: TGI (SNB-19 CNS) | TGI (M14 melanoma) | TGI (OVCAR-8 ovarian) | TGI (SK-MEL-5 melanoma) | TGI (COLO 205 colon) | TGI (OVCAR-5 ovarian)

CC1=C(C(=O)OC23CC4CC(CC(C4)C2)C3)C(c2ccccc2OC(F)F)C(C(=O)OC23CC4CC(CC(C4)C2)C3)=C(C)N1 (stereo unspecified)
> 100 µM: TGI (HS 578T breast) | TGI (MCF7 breast) | TGI (SNB-19 CNS) | TGI (M14 melanoma) | TGI (OVCAR-8 ovarian) | TGI (SK-MEL-5 melanoma) | TGI (MDA-MB-435) | TGI (LOX IMVI melanoma) | TGI (COLO 205 colon) | TGI (T-47D breast) | TGI (OVCAR-5 ovarian)

BrC12C3C4C5C(C(C43)C13OCCO3)C52 (stereo unspecified)
> 100 µM: TGI (SNB-19 CNS) | TGI (OVCAR-8 ovarian) | TGI (SK-MEL-5 melanoma) | TGI (LOX IMVI melanoma) | TGI (COLO 205 colon) | TGI (OVCAR-5 ovarian)

CCOC(=O)C1=C(C)C2C3C(=O)NC(=O)C3C1(C)C1C(=O)NC(=O)C21 (stereo unspecified)
> 100 µM: TGI (SNB-19 CNS) | TGI (M14 melanoma) | TGI (OVCAR-8 ovarian) | TGI (SK-MEL-5 melanoma) | TGI (LOX IMVI melanoma) | TGI (COLO 205 colon)

Clc1ccc2c(Cl)ncnc2c1I
> 100 µM: TGI (SNB-19 CNS) | TGI (M14 melanoma) | TGI (OVCAR-8 ovarian) | TGI (SK-MEL-5 melanoma) | TGI (LOX IMVI melanoma) | TGI (COLO 205 colon) | TGI (OVCAR-5 ovarian)

Cc1c(C(=O)Nc2ccc(Cl)c(C(F)(F)F)c2)oc2cc(O)ccc2/c1=N\NC(N)=S
> 100 µM: TGI (SNB-19 CNS) | TGI (M14 melanoma) | TGI (OVCAR-8 ovarian) | TGI (SK-MEL-5 melanoma) | TGI (LOX IMVI melanoma) | TGI (COLO 205 colon) | TGI (OVCAR-5 ovarian)

CCOC(=O)Cc1nc2nn(Cc3ccccc3)cc2c(=O)[nH]1
> 100 µM: TGI (MCF7 breast) | TGI (SNB-19 CNS) | TGI (OVCAR-8 ovarian) | TGI (SK-MEL-5 melanoma) | TGI (MDA-MB-435) | TGI (LOX IMVI melanoma) | TGI (COLO 205 colon) | TGI (T-47D breast) | TGI (OVCAR-5 ovarian)

Cc1ccc2nc(CN3CCCCC3)cc(=O)n2c1
> 100 µM: TGI (HS 578T breast) | TGI (MCF7 breast) | TGI (SNB-19 CNS) | TGI (M14 melanoma) | TGI (OVCAR-8 ovarian) | TGI (MDA-MB-435) | TGI (LOX IMVI melanoma) | TGI (PC-3 prostate) | TGI (COLO 205 colon) | TGI (OVCAR-5 ovarian)

CO[C@H]1C[C@@H]2CC[C@@H](C)[C@@](O)(O2)C(=O)C(=O)N2CCCC[C@H]2C(=O)O[C@H]([C@H](C)C[C@@H]2CC[C@@H](OC(=O)C(C)(CO)CO)[C@H](OC)C2)CC(=O)[C@H](C)/C=C(\C)[C@@H](O)[C@@H](OC)C(=O)[C@H](C)C[C@H](C)/C=C/C=C/C=C/1C
> 86.4 µM: TGI (OVCAR-8 ovarian)
active: GI50 (OVCAR-8 ovarian) < 0.0143 µM | GI50 (PC-3 prostate) < 0.0487 µM
> 100 µM: TGI (SNB-19 CNS) | TGI (M14 melanoma) | TGI (SK-MEL-5 melanoma) | TGI (MDA-MB-435) | TGI (T-47D breast) | TGI (OVCAR-5 ovarian)
17.2 µM: TGI (HS 578T breast)
> 75.9 µM: TGI (LOX IMVI melanoma)
> 81.6 µM: TGI (PC-3 prostate)
> 60.4 µM: TGI (COLO 205 colon)
inactive: GI50 (M14 melanoma) 16 µM | GI50 (SK-MEL-5 melanoma) 1.87 µM | GI50 (MDA-MB-435) 2.5 µM | GI50 (OVCAR-5 ovarian) > 59.1 µM

CSC1=N/C(=C\c2ccc(Cl)cc2)C(=O)N1CN1CCOCC1
> 100 µM: TGI (HS 578T breast) | TGI (MCF7 breast) | TGI (SNB-19 CNS) | TGI (M14 melanoma) | TGI (SK-MEL-5 melanoma) | TGI (MDA-MB-435) | TGI (LOX IMVI melanoma) | TGI (PC-3 prostate) | TGI (COLO 205 colon) | TGI (OVCAR-5 ovarian)
61.6 µM: TGI (OVCAR-8 ovarian)

C=CCNC(NCC=C)=C(C(Cl)=C(Cl)Cl)[N+](=O)[O-]
> 100 µM: TGI (MCF7 breast) | TGI (SNB-19 CNS) | TGI (M14 melanoma) | TGI (MDA-MB-435) | TGI (PC-3 prostate) | TGI (T-47D breast) | TGI (OVCAR-5 ovarian)
37.2 µM: TGI (COLO 205 colon)
31.2 µM: TGI (OVCAR-8 ovarian)
54 µM: TGI (HS 578T breast)

CN(C)c1cccc(-c2cc(=O)c3cc4c(cc3[nH]2)OCO4)c1
0.92 µM: TGI (OVCAR-5 ovarian)
> 57.6 µM: TGI (SNB-19 CNS)
0.823 µM: TGI (COLO 205 colon)
0.461 µM: TGI (M14 melanoma)
> 100 µM: TGI (LOX IMVI melanoma)
3.65 µM: TGI (OVCAR-8 ovarian)
2.83 µM: TGI (SK-MEL-5 melanoma)

COC(=O)c1cccc(C)c1C1CN=NC12Cc1c(ccc(C)c1C)C2=O (stereo unspecified)
17.7 µM: TGI (SK-MEL-5 melanoma)
> 100 µM: TGI (HS 578T breast) | TGI (MCF7 breast) | TGI (SNB-19 CNS) | TGI (M14 melanoma) | TGI (OVCAR-8 ovarian) | TGI (MDA-MB-435) | TGI (LOX IMVI melanoma) | TGI (OVCAR-5 ovarian)
25.1 µM: TGI (T-47D breast)

Cc1cccc(NC(=O)CSc2nnc(Cc3ccccc3)o2)c1
> 100 µM: TGI (SNB-19 CNS) | TGI (M14 melanoma) | TGI (OVCAR-8 ovarian) | TGI (SK-MEL-5 melanoma) | TGI (LOX IMVI melanoma) | TGI (COLO 205 colon) | TGI (OVCAR-5 ovarian)

Cc1cc2c(cc1Cl)SC(NNC(=O)c1ccncc1)=NS2(=O)=O
> 10 µM: TGI (HS 578T breast) | TGI (SNB-19 CNS) | TGI (M14 melanoma) | TGI (OVCAR-8 ovarian) | TGI (SK-MEL-5 melanoma) | TGI (MDA-MB-435) | TGI (LOX IMVI melanoma) | TGI (PC-3 prostate) | TGI (COLO 205 colon) | TGI (T-47D breast) | TGI (OVCAR-5 ovarian)

CC(=O)CCC(=O)CC(O)(C(F)(F)F)C(F)(F)F
33.2 µM: TGI (SK-MEL-5 melanoma)
37.9 µM: TGI (OVCAR-8 ovarian)
29.9 µM: TGI (OVCAR-5 ovarian)
37.1 µM: TGI (MCF7 breast)
34.6 µM: TGI (MDA-MB-435)
38.5 µM: TGI (HS 578T breast)
34.4 µM: TGI (COLO 205 colon)
34.9 µM: TGI (M14 melanoma)
30 µM: TGI (SNB-19 CNS)
40 µM: TGI (T-47D breast)

CC(C)CC(NC(=O)OCc1ccccc1)C(=O)NCCCCC(N)C(=O)NC(CCCCNC(=O)C(CC(C)C)NC(=O)OCc1ccccc1)C(=O)NC(CCCCNC(=O)C(CC(C)C)NC(=O)OCc1ccccc1)C(=O)NC(CCCCNC(=O)C(CC(C)C)NC(=O)OCc1ccccc1)C(=O)NC(CCCCNC(=O)C(CC(C)C)NC(=O)OCc1ccccc1)C(=O)NC(CCCCNC(=O)C(CC(C)C)NC(=O)OCc1ccccc1)C(=O)O (stereo unspecified)
> 100 µM: TGI (MCF7 breast) | TGI (SNB-19 CNS) | TGI (OVCAR-8 ovarian) | TGI (SK-MEL-5 melanoma) | TGI (MDA-MB-435) | TGI (LOX IMVI melanoma) | TGI (PC-3 prostate) | TGI (T-47D breast) | TGI (OVCAR-5 ovarian)

Nc1ccccc1C(=O)NNC(=O)c1ccccc1N
> 100 µM: TGI (MCF7 breast) | TGI (SNB-19 CNS) | TGI (M14 melanoma) | TGI (OVCAR-8 ovarian) | TGI (SK-MEL-5 melanoma) | TGI (MDA-MB-435) | TGI (LOX IMVI melanoma) | TGI (PC-3 prostate) | TGI (COLO 205 colon) | TGI (T-47D breast) | TGI (OVCAR-5 ovarian)

CCCCC1(OC(=O)CCC(=O)O)CCC2(CCC(C)C(C/C=C(C)/C=C/C(O)C(C)/C=C/C(=O)O)O2)OC1CC/C(C)=C/C(=O)O (stereo unspecified)
3.27 µM: TGI (LOX IMVI melanoma)
4.52 µM: TGI (M14 melanoma)
3.14 µM: TGI (SK-MEL-5 melanoma)
35.1 µM: TGI (COLO 205 colon)
14.4 µM: TGI (OVCAR-5 ovarian)
11.8 µM: TGI (SNB-19 CNS)
7.67 µM: TGI (OVCAR-8 ovarian)

C1=Cc2nc1c(-c1ccccc1)c1ccc([n-]1)c(-c1ccccc1)c1nc(c(-c3ccccc3)c3ccc([n-]3)c2-c2ccccc2)C=C1.[Zn+2]
> 100 µM: TGI (SNB-19 CNS) | TGI (M14 melanoma) | TGI (OVCAR-8 ovarian) | TGI (SK-MEL-5 melanoma) | TGI (LOX IMVI melanoma) | TGI (COLO 205 colon) | TGI (OVCAR-5 ovarian)
